From publication PMC6920980, “Encapsulation in Polymeric Nanoparticles Enhances the Enzymatic Stability and the Permeability of the GLP-1 Analog, Liraglutide, Across a Culture Model of Intestinal Permeability” (Pharmaceutics, 2019)
Blank lines part the entries; values can stand above or below the compound they belong to.

Legend:
[1] = system: Caco-2 intestinal epithelial cells; assay: Cell viability measurement by impedance; assay type: cell-based, human; conditions: PN159 3 µM; for cell index values measured by impedance (cell viability): Caco-2, liraglutide 100 µM, Triton X-100 1 mg/mL, in culture medium, kinetics for 24 h and 1-h time point, 10 kHz, n = 6–12; for cell impedance kinetics: Caco-2, 24-h long treatment, liraglutide 100 µM
Experimental: (§1) The Caco-2 intestinal epithelial cell line was purchased from ATCC (cat.no. HTB-37) at passage 60. The cells were grown, as previously reported, in Dulbecco’s modified Eagle’s medium (Gibco, Life Technologies, Carlsbad, CA, USA) supplemented with 10% fetal bovine serum (Pan-Biotech GmbH, Aidenbach, Germany) and 50 μg/mL gentamycin in a humidified incubator with 5% CO2 at 37 °C. All plastic surfaces were coated with 0.05% rat tail collagen in sterile distilled water before cell seeding in culture dishes and the medium was changed every 2 days.
(§2) The concentration of stock solutions for cell culture experiments were 1 mM for both the therapeutic peptide liraglutide and the PN159 peptide, which was used as a reference absorption enhancer. The working solutions were diluted in cell culture medium or Ringer-buffer depending on the experiments. The final concentration of liraglutide encapsulated in the PLGA NPs was 100 µM and was diluted directly before using. Liraglutide was examined at 100 µM, while PN159 was examined at 3 µM concentration both for cell viability and permeability.
Impedance was measured at 10 kHz by an RTCA SP instrument (RTCA-SP instrument, ACEA Biosciences, San Diego, CA, USA). We have successfully tested the cellular effects of peptides and pharmaceutical excipients by impedance kinetics. For background measurements, 50 μL cell culture medium was added to the wells. This was followed by seeding the cells at a density of 6 × 10^3 cells/well to 96-well plate with gold electrodes (E-plate 96, ACEA Biosciences) coated with collagen. Cells were cultured for 5 days in a CO2 incubator at 37 °C and monitored every 10 min until the end of experiments. Cells were treated at the beginning of the plateau phase of growth. Lira, Lira-loaded PLGA NPs, blank PLGA NPs (without cargo), Lira and PN159 solution, and PN159 peptide were diluted in cell culture medium and the effects were followed for 24 h. Triton X-100 detergent (1 mg/mL) was used as a reference compound to obtain total cell toxicity. Cell index was defined as Rn-Rb at each time point of measurement, where Rn is the cell–electrode impedance of the well when it contains cells and Rb is the background impedance of the well with the medium alone.

[2] = system: Caco-2 epithelial cell layers; assay: Permeability study on the Caco-2 model; assay type: in vitro ADME, human
Experimental: as §1, §2
(§3) Caco-2 cells were seeded onto Transwell inserts (polycarbonate membrane, 3 µm pore size, 1.12 cm^2 surface area; Corning Life Sciences, Tewksbury, MA, USA) and cultured for three weeks. […] Treatment solutions from both compartments were collected and the Lira level was detected by HPLC.
(§4) The apparent permeability coefficients (Papp) were calculated as described previously. […]
(§5) Recovery (mass balance) was calculated according to the equation: %Recovery=CfDV^D+CfAV^A/C0DV^D×100% where C0D and CfD are the initial and final concentrations of the compound in the donor compartment, respectively; […] is the final concentration in the acceptor compartment; and V^D and V^A are the volumes of the solutions in the donor and acceptor compartments.
(§6) Lira was analyzed by a reversed phase HPLC (Agilent 1200, San Diego, CA, USA) method that was previously developed and validated in our lab. […]

Caco-2 epithelial cells = assay: Immunostaining for junctional proteins ZO-1 and β-catenin; assay type: cell-based, human; conditions: Caco-2 on glass coverslips, 1 h treatment, Lira 100 µM, PN159 3 µM, confocal microscopy
Experimental: Aiming to investigate the morphological changes in interepithelial junctions, immunostaining for the junctional proteins, zonula occludens protein-1 (ZO-1) and β-catenin, was carried out. Cells were grown on glass coverslips (Menzel-Glaser, Braunschweig, Germany) at a density of 4 × 10^4 cells/coverslips for 4 days and treated with Lira (100 µM), Lira loaded in PLGA NPs, Lira and PN159 solution, and PN159 peptide (3 µM) solutions for 1 h. After the treatment, the coverslips were washed with phosphate buffer (PBS) and the cells were fixed with 3% paraformaldehyde solution for 15 min at room temperature and incubated in 0.2% TX-100 solution for permeabilization. The cells were blocked with 3% bovine serum albumin in PBS and incubated with the rabbit primary antibodies, anti-ZO-1 and anti-β-catenin, overnight. Incubation with secondary Cy3-labeled anti-rabbit antibody lasted for 1 h. Hoechst dye 33342 was used to stain the cell nuclei. After mounting the samples (Fluoromount-G; Southern Biotech, Birmingham, AL, USA), the staining was visualized by a Visitron spinning disk confocal system (Visitron Systems GmbH, Puchheim, Germany).

pancreatin = assay: Enzymatic degradation study in pancreatin-containing simulated intestinal fluid SIF; assay type: in vitro ADME, porcine; conditions: SIF with pancreatin (10 g/L, USP), pH 6.8, 37 °C, 100 rpm, 500 μg Lira in 2 mL, HPLC-UV, triplicate
Experimental: Stability analysis in the presence of pepsin and pancreatin was conducted and compared between native Lira and Lira loaded in PLGA NPs. Five hundred micrograms of native Lira, or the amount of NPs containing an equivalent amount of Lira, were added to 2 mL of pepsin-containing simulated gastric fluid SGF (3.2 g pepsin, 2 g of sodium chloride, 7 mL HCl, mixed and diluted with water to 1 L, pH = 1.2) or pancreatin-containing simulated intestinal fluid SIF (10 g pancreatin, 6.8 g KH2PO4, mixed and adjusted with 0.2 N NaOH then diluted with water to 1 L, pH = 6.8) and incubated at 37 °C under stirring at a speed of 100 rpm. The SGF and SIF were prepared as per USP specifications (Test Solutions, United States Pharmacopeia 35, NF 30, 2012). The same methodology was followed to assess the native Lira stability in SGFsp and SIFsp. […] The samples were centrifuged at 16,500× g and 4 °C for 10 min and the supernatant was analyzed by HPLC to calculate the residual Lira. […] Lira recovery in the withdrawn samples was calculated using the following equation: Lira recovery% = (Remaining Lira amount/theoretical Lira amount) × 100
as §6

[3] = Permeability study on the Caco-2 model; assay type: in vitro ADME, human; conditions: human; Caco-2 on Transwell (polycarbonate, 3 µm pore, 1.12 cm^2), 3 weeks culture, apical to basal, Ringer-buffer pH 7.4, donor 100 µM liraglutide (PN159 3 µM where present), 1 h, HPLC-UV 214 nm, mean, n = 4; read-out: apparent permeability coefficient (Papp) of liraglutide
Experimental: as §1, §2, §3, §4, §5, §6

Compound: Triton X-100
- cell index values measured by impedance (cell viability) [1]: impedance dropped to zero

- Papp of marker molecule ([2]; Caco-2 monolayers, TEER 893 ± 135 Ω × cm^2 before the experiments): below 0.5 × 10^−6 cm/s
Compound: O=C1OC2(c3ccc(O)cc3Oc3cc(O)ccc32)c2ccccc21 [fluorescein]

Compound: CC(C)C[C@H](NC(=O)[C@H](C)NC(=O)[C@H](CCCCN)NC(=O)[C@H](CC(C)C)NC(=O)[C@H](C)NC(=O)[C@H](CC(C)C)NC(=O)[C@H](CCCCN)NC(=O)[C@H](CC(C)C)NC(=O)[C@H](C)NC(=O)[C@H](CC(C)C)NC(=O)[C@@H](N)CCCCN)C(=O)N[C@@H](CCCCN)C(=O)N[C@@H](C)C(=O)N[C@@H](C)C(=O)N[C@@H](CC(C)C)C(=O)N[C@@H](CCCCN)C(=O)N[C@@H](CC(C)C)C(=O)N[C@@H](C)C(N)=O [PN159 peptide]
- junctional morphology (ZO-1 and β-catenin immunostaining) (Caco-2 epithelial cells): visible change in the staining pattern of β-catenin
- cell impedance kinetics [1]: no decrease in cell impedance kinetics
- cell index values measured by impedance (cell viability) [1]: did not change the cell index values

- Lira recovery (pancreatin; 30 min incubation, mean ± SD): 9.2 ± 0.7%
- Lira degradation (pancreatin; 1 h incubation): completely degraded
- Recovery (%) Mean ± SD (mass balance) ([2]; after liraglutide permeability on Caco-2 cells, donor 100 µM liraglutide, Ringer-buffer pH 7.4, 1 h, HPLC, mean ± SD): 80.9 ± 1.6%
- Papp A→B at 1 h, 100 µM [3]: 16 ×10⁻⁶ cm/s
Compound: CCCCCCCCCCCCCCCC(=O)N[C@@H](CCC(=O)NCCCC[C@H](NC(=O)[C@H](C)NC(=O)[C@H](C)NC(=O)[C@H](CCC(N)=O)NC(=O)CNC(=O)[C@H](CCC(=O)O)NC(=O)[C@H](CC(C)C)NC(=O)[C@H](Cc1ccc(O)cc1)NC(=O)[C@H](CO)NC(=O)[C@H](CO)NC(=O)[C@@H](NC(=O)[C@H](CC(=O)O)NC(=O)[C@H](CO)NC(=O)[C@@H](NC(=O)[C@H](Cc1ccccc1)NC(=O)[C@@H](NC(=O)CNC(=O)[C@H](CCC(=O)O)NC(=O)[C@H](C)NC(=O)[C@@H](N)Cc1cnc[nH]1)[C@@H](C)O)[C@@H](C)O)C(C)C)C(=O)N[C@@H](CCC(=O)O)C(=O)N[C@@H](Cc1ccccc1)C(=O)N[C@H](C(=O)N[C@@H](C)C(=O)N[C@@H](Cc1c[nH]c2ccccc12)C(=O)N[C@@H](CC(C)C)C(=O)N[C@H](C(=O)N[C@@H](CCCNC(=N)N)C(=O)NCC(=O)N[C@@H](CCCNC(=N)N)C(=O)NCC(=O)O)C(C)C)[C@@H](C)CC)C(=O)O [Liraglutide]
- cell impedance kinetics [1]: no decrease in cell impedance kinetics
- cell index values measured by impedance (cell viability) [1]: did not change the cell index values
